In assay [1] the target is BACE1 (Homo sapiens, UniProt P56817). Description: BACE1 activity assay (FRET, cell-free). The class given is biochemical. The following applies: peptide final concentration 20 μM, 90 minutes, room temperature. More on the design: purchased Pan Vera Co., Madison, Wis., USA. Here is the method: BACE1 Activity Assay—The BACE1 inhibiting activity of APP-based BACE1 site binding peptides were determined using a fluorescence resonance energy transfer (FRET) assay (Pan Vera Co., Madison, Wis., USA), which employs a recombinant baculovirus-expressed BACE1 and a specific substrate (Rh-[…]-quencher) that is based on the APPswe mutation. This specific peptide substrate becomes highly fluorescent upon enzymatic cleavage. A mixture of 10 μL of BACE1 (1.0 U/mL in 50 mM Tris, pH7.5, 10% glycerol), 10 μL of FRET-substrate, and 10 μL of the various APP-based BACE1 site binding peptides (final concentration 20 μM) were incubated for 90 minutes in the dark at room temperature. Then, 10 μL of BACE1 stop buffer (2.5 M sodium acetate) was added to the mixture. Fluorescence was read using a fluorometer, with excitation at 545 nm and emission at 585 nm.
As a required enzyme for the generation of neurotoxic Aβ from APP, BACE1 is well established as an important mediator of AD β-amyloid pathology. As such, it has become an important target for new disease modifying therapeutics. However, since BACE1 also has important physiological roles, abolishment of the enzyme or its activity may lead to deleterious side effects as evidenced by numerous failed clinical trials discussed previously. […] Since previous studies have established a close relationship between α-helix structure and peptide-protein (or protein-protein) interactions (Azzarito, 2013; Rao et al., 2013), several APP based peptides were synthesized that might serve as a preferable substrate for BACE1. Importantly, these peptides were free of the Aβ-containing segment and, thus, cannot be amyloidogenic. In theory, these could be used to “hijack” the BACE1 processing of endogenous APP and lead to a decrease in cerebral Aβ. These BACE1 substrates and controls were incubated with recombinant BACE1 and percent of inhibition of the enzyme was calculated. […] These findings indicate that the α-helical TAT fusion domain may help to promote selective APPsweBBP proteolysis by BACE1, yielding substrate competition against human wild-type APP.

The test system of assay [2] is CHO cells over-expressing human Swedish mutant APP (CHO/APPswe). Put plainly: Aβ and sAPPα production in cultured media of CHO/APPswe cells by ELISA. The class given is cell-based, Chinese hamster. To be noted: 20 μg/mL, 24 hours. Here is the method:
Cell Culture—Chinese hamster ovary (CHO) cells engineered to express wild-type human APP (CHO/APPwt cells) or Swedish mutant human APP (CHO/APPswe cells) were kindly provided by Dr. Stefanie Hahn and Dr. Sascha Weggen (University of Heinrich Heine, Dusseldorf, Germany). As described previously (Obregon et al., 2012), these cells were cultured in Dulbecco's modified Eagle's medium (DMEM) with 10% fetal bovine serum (FBS), 1 mM sodium pyruvate, and 100 units/mL of penicillin and streptomycin.
To confirm the binding of APPsweBBP with BACE1, CHO/APPwt cells were plated in 8-well chambers (5×10^5/well), incubated with TAT-APPsweBBP-biotin or APPsweBBP-biotin at 20 μM for 30 minutes, fixed with 4% paraformaldehyde for 20 minutes, washed and permeabilized with 0.5% Triton X-100. Following application of blocking buffer, these cells were stained with mouse anti-BACE1 and rabbit anti-biotin antibodies overnight at 4° C. for immunocytochemistry analysis. In order to determine the inhibitory effects of TAT-APPsweBBP on BACE1-mediated APP β-cleavage and subsequent Aβ production, both CHO/APPwt and CHO/APPswe cells were plated in 24 well-plates (3×10^5/well) and treated with TAT-APPsweBBP at 0-20 μM for 24 hours. The cultured media were collected for Aβ analysis by enzyme-linked immunosorbent assay (ELISA) and sAPPα analysis by ELISA and Western blot (WB). Cell lysates were also prepared for analysis of APP amyloidogenic processing by WB.
ELISA—Mouse brains were homogenized in ice-cold lysis buffer for 30 seconds using a Minilys tissue homogenizer (Bertin Technologies, Montigny-le-Bretonneux, France) set at high speed, allowed to stand for 15 minutes at 4° C., and centrifuged at 15,000 rpm for 30 minutes. Soluble Aβ1-40/42 species and sAPPα were directly detected in cultured cell media or brain homogenates using the Aβ1-40/42 (Invitrogen) and sAPPα ELISA kits (IBL-America, Minneapolis, Minn., USA).
To further examine the ability of the Swedish mutant APP BACE1 binding peptide/Tat fusion peptides to decrease Aβ production, CHO cells overexpressing either human wild-type APP (CHO/APPwt cells) or Swedish mutant APP (hereinafter referred to as “CHO/APPswe cells”) are treated with a variety of APP-based BACE1 inhibitor peptides, as shown in Table 1 and Table 2. Aβ production is determined using ELISA.
In general terms: An ELISA detects its analyte on a solid surface through an enzyme-linked reagent.

Sequence of BACE1 (P56817 46-501): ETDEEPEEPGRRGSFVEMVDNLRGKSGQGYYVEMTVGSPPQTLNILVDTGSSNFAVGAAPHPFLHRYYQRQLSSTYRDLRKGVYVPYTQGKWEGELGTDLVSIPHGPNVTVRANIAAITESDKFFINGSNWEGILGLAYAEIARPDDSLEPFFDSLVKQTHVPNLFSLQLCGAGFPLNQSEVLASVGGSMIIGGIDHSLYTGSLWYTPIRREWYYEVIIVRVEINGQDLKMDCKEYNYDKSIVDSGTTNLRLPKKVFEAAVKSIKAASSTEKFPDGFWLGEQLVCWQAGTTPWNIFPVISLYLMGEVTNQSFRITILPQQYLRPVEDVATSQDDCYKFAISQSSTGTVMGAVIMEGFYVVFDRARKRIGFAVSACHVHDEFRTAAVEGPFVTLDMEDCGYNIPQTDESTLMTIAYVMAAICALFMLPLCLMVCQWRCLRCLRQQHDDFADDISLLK

As to YGRKKRRQRRR [TAT, reference compound], in assay [1], the “% of inhibition (mean ± SD) of BACE1” value was 3.32 ± 0.02%. Also, in assay [2], the “Secreted Aβ40 (ng/mg; mean ± SD)” value is recorded as 66.71 ± 12.02 ng/mg, the “Secreted Aβ42 (ng/mg; mean ± SD)” value was 10.76 ± 2.12 ng/mg and the “Secreted sAPPα (ng/mg; mean ± SD)” value is listed as 196.98 ± 17.77 ng/mg.

Source of the values: patent US9926354B2, “Amyloid precursor protein (APP) based Ã#-secretase inhibitor peptides, and methods of use” (UNIVERSITY OF SOUTH FLORIDA, priority 2014, dated 2018).
